# Reference: PMC10707468, “Pharmacokinetics of Novel Dopamine Transporter Inhibitor CE-123 and Modafinil with a Focus on Central Nervous System Distribution” (International Journal of Molecular Sciences, 2023)
# What was measured:
# [1] = system: male Sprague-Dawley rats; design: method as in PMID 29230168, PMID 29410048, PMID 33940050; conditions: cited from earlier work
# [2] = system: cerebEND in vitro model of the blood–brain barrier; conditions: cerebEND; cited from earlier work
# [3] = In vivo rat tissue biodistribution / neuroPK study, 4 h intravenous constant infusion; design: species or system Sprague-Dawley rats; conditions: for metabolite detection in rat samples: after 4 h iv infusion 20 mg/kg of parent
# Description: The results are summarized in Figure 4 and Table S2 within Supplementary Materials.
# In order to minimize the usage of animals and gain high confidence in the tissue distribution, a 4 h constant intravenous infusion study was designed based on the systemic pharmacokinetic parameters determined elsewhere. The catheters were surgically implanted a day before the PK experiment. The rats (n = 3 per compound) were then individually placed into a CMA 120 system (CMA, Solna, Sweden). […] A dose of 20 mg/kg was administered as a combination of an initial short 10 min infusion as a loading dose followed by a constant infusion up to 4 h, targeting a steady-state total plasma concentration of around 1000 ng/mL for each compound (based on the pilot study results). Blood was collected into heparinized Eppendorf tubes via a femoral artery catheter at 0 (before infusion starts) 1, 2, 3, and 4 h after the infusion started and immediately centrifuged at 10,000 rpm for 5 min at +4 °C. Plasma was then collected and kept at −20 °C. At 4 h, the rats were anesthetized via inhalation of 2.5% isoflurane (Abbot Scandinavia, Solna, Sweden), balanced with 1.5 L/min oxygen, after which the terminal blood and tissue samples were collected. […] The tissue samples (brain, spinal cord, liver, and kidney) were rapidly removed, pre-weighed into a 2 mL hard tissue homogenizing tube with mini-beads, and subsequently homogenized in 2 volumes of MQ water using a 4-Place Bead Mill Homogenizer (VWR, Stockholm, Sweden) at the maximal speed for 2 min and thereafter kept at +4 °C. The plasma and tissue homogenate samples were stored at −20 °C until LC–MS analysis.
# For all the rat plasma and CSF samples, an aliquot of 50 µL was spiked with 50 µL of 4% PA in water containing the IS solution to disrupt the drug–protein binding. For all rat tissue samples (brain, spinal cord, liver, and kidney), an aliquot of 50 µL was spiked with 50 µL ice-cold ACN containing the IS solution for protein precipitation. The samples were vortexed and spun down for 10 min (3000× g, 4 °C) and 25 µL of clear supernatant was diluted with 225 µL 0.1% FA in water to achieve 10% of ACN in the solution. SPE clean-up was performed using an Oasis PRiME HLB µElution 96-well plate, 3 mg (Waters Corporation, Vienna, Austria). The SPE cartridges were preconditioned and equilibrated with 1 × 200 µL ACN and 0.1% FA in water each. The samples were loaded onto the cartridges and washed with 2 × 200 µL 0.1% FA in water and 1 × 200 µL ACN/0.1% FA in water 10:90 (v:v). The analytes were eluted from the SPE cartridge into a collection plate with 2 × 25 µL ACN/0.1% FA in water 70:30 (v:v). All the samples were diluted with 50 µL of 0.1% FA in water and 10 µL of sample was injected onto the LC–HRMS system.
# All samples, blanks, standards, and quality control samples in the respective matrices were analyzed on a UHPLC system (Dionex UltiMate 3000 RSLC series system, Thermo Fisher Scientific, Inc., Dreieich, Germany) coupled with a high-resolution mass spectrometer (maXis HD Q-TOF, Bruker Daltonics, Bremen, Germany) equipped with a heated electrospray ionization (ESI) source. Reversed-phase chromatographic separation was performed on a Kinetex Phenyl-Hexyl column (2.6 µm, 2.1 × 50 mm, Phenomenex, Torrance, CA, USA), equipped with a precolumn (2.6 µm, Phenomenex, Torrance, CA, USA), at a flow rate of 0.4 mL/min. Eluent A was water containing 0.1% FA and eluent B ACN. A multi-step gradient was optimized as follows: the initial mobile phase composition (5% eluent B) was held constant for 1 min, followed by a linear increase to 30% eluent B until minute 1.5, to 40% eluent B until minute 5.5, and to 95% eluent B until minute 6. After a hold time of 2 min, the column was re-equilibrated for 2.5 min at the initial conditions (5% eluent B). The column compartment and the autosampler were maintained at 40 °C and at 8 °C, respectively. […]
# [4] = In vitro plasma stability assay; assay type: in vitro ADME; conditions: rat plasma, 37 °C
# Description: In vitro plasma stability assay was used in the scope of the validation studies. Briefly, 40 μL of blank rat plasma or blank rat plasma containing 10% DMF as an inhibitor was first pre-warmed for 5 min at 37 °C using a Thermomixer® comfort (Eppendorf, Hamburg, Germany). […] The reaction was terminated after 0, 1, 2, and 4 h, via the addition of 50 μL of ice-cold ACN containing the IS solution. The samples were centrifuged for 10 min at 3000× g at 4 °C. The supernatant of all samples was diluted with 0.1% FA in water, 1:2 (v:v), and 10 µL of the sample was injected onto the LC–HRMS system.
# [5] = In vitro metabolic stability in human liver microsomes; assay type: in vitro ADME; conditions: R-modafinil 1, 5, 10, 50 µM
# Description: An in vitro metabolism assay to study the phase I metabolism in the HLMs was in-house-developed. Optimization of the protocol included the test compound concentration (1, 5, 10 m and 50 µM) and extraction solvents (ACN and MeOH). […] The metabolic assay was initiated by the addition of 10 mM NADPH to the reaction solution and terminated after 0, 2.5, 5, 15, 30, 45, and 60 min via the addition of 200 µL of ice-cold MeOH containing the IS solution. The samples were than vortexed and spun for 15 min (14,000× g, 4 °C). The supernatant was collected, evaporated to dryness using the Concentrator plus (Eppendorf), and reconstituted with 100 µL of ACN/0.1% FA in water 10:90 (v:v). To ensure that the assay was performing adequately, the incubation of 1 µM diazepam at the same assay conditions as described was conducted, and the formation of its metabolites temazepam and nordazepam was monitored. A negative control included the absence of NADPH, the test compound, or HLMs during assay. […] The metabolic stability curves of the tested compounds were established by plotting the incubation time against the natural logarithm of the % parent drug remaining. The slope (k) of the linear part was utilized for the in vitro half-life (t1/2, min) as ln2/k. The V (µL/mg) was calculated as the volume of the reaction solution (100 µL) divided by the protein amount in the incubation (0.5 mg). The protein amount was predetermined by the supplier and the content was checked by using a Pierce™ BCA Protein Assay Kit (Thermo Fisher Scientific, Vienna, Austria) for each freshly opened tube. The intrinsic clearance (CLint, µL/min/mg) was calculated according to the following equation:(7) CLint=0.693/t1/2·V […]
# [6] = target: CYP2C9 (Homo sapiens, UniProt P11712); conditions: primary cell cultures of human hepatocytes; ref Robertson et al. (2000) [72]; cited from earlier work
# [7] = system: CYP1A2; conditions: ref Robertson et al. (2000) [72]; cited from earlier work
# [8] = system: CYP2B6; conditions: ref Robertson et al. (2000) [72]; cited from earlier work
# [9] = target: CYP2C19 (Homo sapiens, UniProt P33261); conditions: in HLMs; ref Robertson et al. (2000) [72]; cited from earlier work
# CYP2C19, sequence (P33261 whole entry): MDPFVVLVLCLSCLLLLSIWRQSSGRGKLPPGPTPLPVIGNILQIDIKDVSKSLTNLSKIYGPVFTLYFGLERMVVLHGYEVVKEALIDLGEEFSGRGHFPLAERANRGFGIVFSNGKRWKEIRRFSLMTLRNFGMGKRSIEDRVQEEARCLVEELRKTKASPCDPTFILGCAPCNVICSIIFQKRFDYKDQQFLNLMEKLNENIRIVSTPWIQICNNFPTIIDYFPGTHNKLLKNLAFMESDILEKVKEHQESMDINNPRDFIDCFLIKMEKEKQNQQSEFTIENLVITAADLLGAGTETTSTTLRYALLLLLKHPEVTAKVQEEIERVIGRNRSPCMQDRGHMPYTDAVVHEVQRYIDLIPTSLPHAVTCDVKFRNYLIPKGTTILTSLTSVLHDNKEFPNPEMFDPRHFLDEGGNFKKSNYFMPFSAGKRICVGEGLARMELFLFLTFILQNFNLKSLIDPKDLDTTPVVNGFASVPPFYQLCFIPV
# CYP2C9, sequence (P11712 whole entry): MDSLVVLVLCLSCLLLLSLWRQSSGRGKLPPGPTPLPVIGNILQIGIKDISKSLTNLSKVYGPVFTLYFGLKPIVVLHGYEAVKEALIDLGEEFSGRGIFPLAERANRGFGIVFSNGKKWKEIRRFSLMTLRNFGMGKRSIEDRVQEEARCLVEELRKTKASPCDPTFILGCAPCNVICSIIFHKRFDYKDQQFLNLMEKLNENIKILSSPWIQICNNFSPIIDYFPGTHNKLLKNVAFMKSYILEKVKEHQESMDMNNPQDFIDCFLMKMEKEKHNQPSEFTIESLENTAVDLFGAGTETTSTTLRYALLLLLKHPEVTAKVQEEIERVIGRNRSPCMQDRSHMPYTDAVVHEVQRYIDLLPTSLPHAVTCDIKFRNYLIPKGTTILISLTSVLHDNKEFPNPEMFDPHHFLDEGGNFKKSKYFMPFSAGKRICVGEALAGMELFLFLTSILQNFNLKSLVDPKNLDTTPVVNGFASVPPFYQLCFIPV
smiles,measurement,setting,value
"[O-][S+](c1cncs1)C(c1ccccc1)c1ccccc1 (stereo not shown) [CE-123, 5-[(Diphenylmethyl)sulfinyl]thiazole]",cognitive flexibility,"[1]; male Sprague-Dawley rats, without impulsive responding, compared to R-modafinil",enhance the cognitive flexibility
same,memory acquisition and memory retrieval,"[1]; rats, doses that did not change locomotor activity",enhance memory acquisition and memory retrieval
same,ability to cross in vitro model of the BBB,[2],could penetrate the BBB in a similar manner to diazepam
O=C(O)C[S+]([O-])C(c1ccccc1)c1ccccc1 (stereo not shown) [modafinic acid],metabolite detection in rat samples,[3],"detected together in the plasma, CSF, liver, and kidneys"
same,metabolite detection during plasma incubation of R-modafinil,[4],detected at the 2 and 4 h time points
same,metabolite formation during HLM incubation of R-modafinil,[5],not detected
NC(=O)CS(=O)(=O)C(c1ccccc1)c1ccccc1 [modafinil sulfone],metabolite detection in rat samples,[3],"detected together in the plasma, CSF, liver, and kidneys"
same,detection in rat brain and spinal cord tissue,"[3]; after 4 h iv infusion of R-modafinil 20 mg/kg, S/N below LOQ",detected
same,metabolite formation during HLM incubation of R-modafinil,[5],observed at all concentrations
"NC(=O)C[S+]([O-])C(c1ccccc1)c1ccccc1 (stereo not shown) [modafinil, 2-[(Diphenylmethyl)sulfinyl]acetamide]",CYP2C9 activity,[6],apparent suppression
same,CYP1A2 induction,[7],modestly induces
same,CYP2B6 induction,[8],modestly induces
same,CYP2C19 inhibition,[9],reversible inhibition
